Experimental data reported in BindingDB's records for doi:10.1021/ml300330m (Glaxosmithkline, 2013).

Test: Inhibition of PI3Kbeta human in PTEN wild type HCC1954 cells assessed as cell growth inhibition
For `Cc1nn2c(N)cc(N3CCOCC3)nc2c1Cc1cccc(C(F)(F)F)c1C`, the EC50 was 12.6 µM.
Work on `Cc1nn2c(O)cc(N3CCOCC3)nc2c1Cc1cccc(C(F)(F)F)c1C` yielded an EC50 of 15.8 µM.
With `Cc1nn2c(O)cc(N3CCOCC3)nc2c1Cc1cccc2ccccc12` the EC50 was 31.6 µM.
Compound `Cc1nn2c(O)cc(C3CCOCC3)nc2c1Cc1cccc(C(F)(F)F)c1C` has an EC50 of 25.1 µM.
In the case of `Cc1c(Cc2cnn3c(O)cc(N4CCOCC4)nc23)cccc1C(F)(F)F`, the EC50 is reported as 15.8 µM.
For `Cc1nn2c(NC(N)=O)cc(N3CCOCC3)nc2c1Cc1cccc(C(F)(F)F)c1C`, the EC50 was 12.6 µM.
